Measurements: ChEMBL document CHEMBL3301361, “Experimental in vitro DMPK and physicochemical data on a set of publicly disclosed compounds”
≈ marks a conversion by molar mass, not a printed value.

What was measured:
[1] = physchem; conditions: octan-1-ol/water
[2] = physchem; conditions: pH 7.4 buffer

logD ([1]; pH 7.4, LogD7.4) | solubility thermodynamic [2] [µM] | logD ([1]; pH 7.4) | SMILES
2.43 | 1290 (≈ 571 µg/mL) |  | Cc1ccc(NC(=O)c2ccoc2)cc1-n1cnc2ccc(N3CCN(C)CC3)cc2c1=O
2.68 | 468 (≈ 173 µg/mL) |  | CCOC(=O)c1ccc(COCC2CCN(c3ccc(C)nn3)CC2)cc1
3.2 | 204 (≈ 100 µg/mL) |  | CN1CCN([C@H]2C[C@@H](c3nc(-c4ccc5ccc(-c6ccccc6)nc5c4)c4c(N)nccn43)C2)CC1
3.34 | 1.1 (≈ 0.47 µg/mL) |  | COc1ccc(-c2csc(N(CCCN3CCOCC3)C(=O)c3ccco3)n2)cc1
1.79 | 550 (≈ 235 µg/mL) |  | CCCSc1nc(Oc2ccc(CC(=O)O)cc2)ccc1C(=O)NC1CCCCC1
 | 77.6 (≈ 21.4 µg/mL) | 1.51 | N#Cc1nc(N2CCOCC2)nc(N2CCOCC2)n1
3.2 | 2 (≈ 0.837 µg/mL) |  | Nc1ncc(-c2cnn(C3CCN(C(=O)CO)CC3)c2)cc1-c1nc2ccccc2o1
2.16 | 282 (≈ 137 µg/mL) |  | COc1cc2ncnc(Nc3cccc(Cl)c3F)c2cc1CN(C)C1(C(N)=O)CCN(C)CC1
3.3 | 2.1 (≈ 0.597 µg/mL) |  | CCn1c(=O)c2[nH]c(-c3ccccc3)nc2n(CC)c1=O
2.67 | 372 (≈ 183 µg/mL) |  | Cc1c(-c2ccc3c(c2)OCO3)c(=O)n(C[C@H](N)c2ccccc2)c(=O)n1Cc1c(F)cccc1F
2.81 | 550 (≈ 222 µg/mL) |  | CCCOc1nc(N2CCC[C@@H](CC(=O)O)C2)ccc1C(=O)NC1CCCCC1
3.15 | 1.7 (≈ 0.621 µg/mL) |  | O=C(Nc1ccc(N2CCOCC2)cc1)c1nnc(Nc2ccccc2)o1
2.69 | 162 (≈ 50 µg/mL) |  | Cn1cnc(-c2ccccc2)c1-c1nc2c(N)ncnc2s1
2.37 | 2 (≈ 0.758 µg/mL) |  | Nc1ncnc2c1nc(Sc1nc3cccc(Cl)c3s1)n2CCO
3.16 | 4 (≈ 1.68 µg/mL) |  | CC(=O)OCCn1c(Sc2nc3cccc(Cl)c3s2)nc2c(N)ncnc21
3.2 | 282 (≈ 110 µg/mL) |  | CN(C(=O)C1CCC1)C1CCN(CCC(c2ccccc2)c2ccccc2)CC1
1.6 | 36.3 (≈ 12.5 µg/mL) |  | Cc1ncc(-c2ccnc(Nc3ccc(S(N)(=O)=O)cc3)n2)n1C
3.21 | 12.3 (≈ 5.87 µg/mL) |  | CN1CCC(Oc2cccc3ncnc(Nc4ccc(OCc5cnccn5)c(Cl)c4)c23)CC1
2.74 | 118 (≈ 39.3 µg/mL) |  | Clc1ccc(CN(Cc2ccc(Cl)cc2)c2nnn[nH]2)cc1
2.89 | 100 (≈ 30.7 µg/mL) |  | Cc1sc2ncnc(SCC(=O)N3CCCC3)c2c1C
2 | 407 (≈ 168 µg/mL) |  | CC1(c2nc(N3CCOCC3)ncc2C(=O)N[C@H]2C3CC4CC2C[C@](O)(C4)C3)CC1
2.51 | 6.2 (≈ 2.63 µg/mL) |  | CC(=O)N1CCN(c2ccc(NC(=O)c3nnc(Nc4ccccc4F)o3)cc2)CC1
3.18 | 11.5 (≈ 5.64 µg/mL) |  | COc1ccc(C)c(N(C)c2ccnc(Nc3cc(N4CCOCC4)cc(N4CCOCC4)c3)n2)c1

logD ([1]; pH 7.4, LogD7.4) | solubility thermodynamic [2] [µM] | logD ([1]; pH 7.4) | SMILES
3.54 | 58.9 (≈ 23.2 µg/mL) |  | CCOC(=O)c1ccc(OCCC2(C#N)CCN(c3ccc(C)nn3)CC2)cc1
2.5 | 63.1 (≈ 19.6 µg/mL) |  | Cc1cc(Nc2ccnc(NCc3cc(C4CC4)no3)n2)n[nH]1
1.5 | 251 (≈ 114 µg/mL) |  | Cc1ccc(NC(=O)c2cccnc2)cc1-n1cnc2ccc(N3CCN(C)CC3)cc2c1=O
2.06 | 380 (≈ 112 µg/mL) |  | FC(F)(F)c1nnc2ccc(NCc3cccnc3)nn12
2.6 | 8.9 (≈ 3.2 µg/mL) |  | CS(=O)(=O)C1(c2cc(N3CCOCC3)nc(-c3ccccc3)n2)CC1
3.01 | 22.9 (≈ 7.15 µg/mL) |  | O=C(NC1CCCCC1)c1cccnc1Sc1ccccc1
1.2 | 759 (≈ 292 µg/mL) |  | Cc1nc(C)c(-c2ccc([C@H]3CC[C@@H](CC(=O)O)CC3)c(F)c2)nc1C(N)=O
3.54 | 3.9 (≈ 2.02 µg/mL) |  | O=C(N1CCN(c2ccncc2Cl)CC1)N1CCN(S(=O)(=O)c2ccc(C(F)(F)F)cc2)CC1
1.02 | 105 (≈ 41.2 µg/mL) |  | O=C(Nc1nnc(C(=O)Nc2ccc(N3CCOCC3)cc2)o1)c1ccccc1
2.72 | 190 (≈ 55.6 µg/mL) |  | O=C(c1ccc(Cl)cc1)C1CCN(C(=O)C2CC2)CC1
0.6 | 135 (≈ 57.4 µg/mL) |  | CCn1c(-c2nonc2N)nc2c(C#CC(C)(C)O)ncc(OCC3CCCNC3)c21 (configuration not stated)
2.59 | 1380 (≈ 727 µg/mL) |  | CN1CCC(COc2cc(OC3CCOCC3)c3c(Nc4c(Cl)ccc5c4OCO5)ncnc3c2)CC1
2.7 | 3.6 (≈ 1.86 µg/mL) |  | COc1cc2c(Nc3cnc(NC(=O)c4ccccc4)nc3)ncnc2cc1OCCCN1CCOCC1
3.52 | 5.4 (≈ 2.05 µg/mL) |  | CS(=O)(=O)c1cccc(Nc2nccc(Nc3cccc4ccoc34)n2)c1
2.96 | 200 (≈ 93.8 µg/mL) |  | CC(C)(C(=O)Nc1nnc(C(=O)Nc2ccc(N3CCOCC3)cc2)o1)c1ccc(Cl)cc1
1.1 | 324 (≈ 82.6 µg/mL) |  | CCn1c2nc(=O)n(C)c(=O)c-2cc2ccccc21
2.9 | 302 (≈ 92.8 µg/mL) |  | O=c1cc(N2CCOCC2)oc2c(-c3ccccc3)cccc12 [LY-294002]
0.75 | 575 (≈ 227 µg/mL) |  | CC(C)(C)Cn1c(CN2C(=O)CC3(CCNCC3)C2=O)cc2cnc(C#N)nc21
2.98 | 24 (≈ 5.24 µg/mL) |  | CSc1nc(N)nc(-c2ccccc2)n1
2.5 | 77.6 (≈ 41.3 µg/mL) |  | NC(=O)c1c(OCc2c(F)cc(Br)cc2F)nsc1NC(=O)NCCCCN1CCCC1 [OSI-632]
3.4 | 25.7 (≈ 11.3 µg/mL) |  | CN(C(=O)NCc1ccccc1)C1CCN(CCC(c2ccccc2)c2ccccc2)CC1
3.38 | 107 (≈ 36 µg/mL) |  | Cc1nc(CSc2ccc(Cl)cc2)cc(N2CCOCC2)n1

More lines, now with the values behind:

SMILES | logD ([1]; pH 7.4, LogD7.4) | solubility thermodynamic [2] [µM] | logD ([1]; pH 7.4)
CCc1ccc(NC(=O)c2ccc3cc(C(=N)N)ccc3c2)cc1 | 1.1 | 8.5 (≈ 2.7 µg/mL) | 
COc1cc2ncnc(Nc3cccc(Cl)c3F)c2cc1CN1C[C@H](OC)C[C@@H]1C(N)=O | 3.09 | 436 (≈ 201 µg/mL) | 
Cc1ccc(Oc2ccnc(Nc3ccc(S(N)(=O)=O)cc3)c2)c(C)n1 | 2.47 | 4.2 (≈ 1.56 µg/mL) | 
COc1cc2ncnc(Oc3cnn(CC(=O)Nc4ccc(N(C)C)cn4)c3)c2cc1OC | 2.36 | 6.6 (≈ 2.97 µg/mL) | 
COc1cc2c(Nc3cc(CC(=O)Nc4cccc(F)c4F)[nH]n3)ncnc2cc1OCCCN(CCO)CC(C)C | 3.61 | 132 (≈ 76.9 µg/mL) | 
CNC(=O)c1ccccc1Sc1ccc2c(/C=C/c3ccccn3)n[nH]c2c1 [AXITINIB] | 3.8 | 0.5 (≈ 0.193 µg/mL) | 
O=S(=O)(Nc1nc(-c2sccc2Cl)cs1)c1cc(Cl)ccc1Cl | 2.11 | 151 (≈ 64.5 µg/mL) | 
COc1ccc(C(=O)Nc2cccc(NC(=O)c3cccc(N(C)C)c3)c2)cc1OC | 3.67 | 1.4 (≈ 0.587 µg/mL) | 
CC(Nc1ncnc2ccccc12)c1ccccc1 (configuration not stated) | 3.4 | 123 (≈ 30.7 µg/mL) | 
Nc1n[nH]c2nnc(-c3ccccc3)c(-c3ccccc3)c12 | 2.6 | 15.8 (≈ 4.54 µg/mL) | 
O=C(O)CC(=O)N[C@@H]1c2ccccc2C[C@H]1NC(=O)c1cc2sc(Cl)c(Cl)c2[nH]1 | 1.18 | 1170 (≈ 531 µg/mL) | 
Cc1c(CCC(=O)O)c[nH]c1/C=C1\C(=O)Nc2ccccc21 | 1.05 | 209 (≈ 61.9 µg/mL) | 
COc1ccc(Nc2cc(Nc3ccc(OCC(O)CN(C)C)cc3)ncn2)cc1 (configuration not stated) | 1.5 | 12 (≈ 4.91 µg/mL) | 
COC(=O)COc1ccc(C(=O)Nc2ccc(F)cc2)cn1 | 2.43 | 55 (≈ 16.7 µg/mL) | 
c1ccc(-c2c[nH]c(-c3ccccc3)n2)cc1 | 3.8 | 151 (≈ 33.3 µg/mL) | 
c1ccc(Nc2cc(Nc3ccccc3)[nH]n2)cc1 | 3.8 | 12.6 (≈ 3.15 µg/mL) | 
Cc1cc(Oc2ccnc(Nc3ccc(S(N)(=O)=O)cc3)c2)c(-c2ccccn2)nc1C | 2.34 | 2.5 (≈ 1.12 µg/mL) | 
CC(=O)c1ccc2[nH]c(-c3cccnc3)cc(=O)c2c1 | 1.41 | 126 (≈ 33.3 µg/mL) | 

SMILES | logD ([1]; pH 7.4, LogD7.4) | solubility thermodynamic [2] [µM] | logD ([1]; pH 7.4)
Nc1ccc(OCc2ccccc2)cc1 [4-BENZYLOXYANILINE] | 2.2 | 468 (≈ 93.2 µg/mL) | 
CCOC(=O)c1ccccc1-c1csc(NS(=O)(=O)c2ccc(Cl)cc2)n1 | 2.43 | 1.4 (≈ 0.592 µg/mL) | 
CSc1ccc(OCc2ccccc2)c(C(=O)Nc2ccc(C(=O)O)cn2)c1 | 1.6 | 200 (≈ 78.7 µg/mL) | 
O=C(Nc1ccccc1-c1ccccc1)OC1CCN(CCCCCCCCCNC[C@H](O)c2ccc(O)c3[nH]c(=O)ccc23)CC1 | 2.16 | 525 (≈ 336 µg/mL) | 
c1ccc(Nc2ccccc2)cc1 [DIPHENYLAMINE] | 3.2 | 178 (≈ 30.1 µg/mL) | 
Cc1c(Cl)cccc1S(=O)(=O)Nc1nc(CC(=O)N2CCN(C)CC2)cs1 |  | 1100 (≈ 470 µg/mL) | 0.57
CNc1ncc(C(=O)c2ccccc2)s1 | 2.36 | 724 (≈ 158 µg/mL) | 
COc1cc2ncc(C(N)=O)c(Nc3ccccc3F)c2cc1OC | 2.81 | 21.9 (≈ 7.48 µg/mL) | 
O=c1cc(-c2ccc(O)cc2)oc2cc(O)ccc12 | 3.2 | 2.3 (≈ 0.585 µg/mL) | 
O=c1oc(-c2ccccc2)cc2ccccc12 | 3.84 | 11.5 (≈ 2.56 µg/mL) | 
COCCCNS(=O)(=O)c1ccc(Nc2nccc(-c3cnc4ccccn34)n2)cc1 | 3.41 | 2.4 (≈ 1.05 µg/mL) | 
Cc1ccn2c(NC(=O)c3ccccc3)c(-c3cccs3)nc2c1 |  | 1.1 (≈ 0.367 µg/mL) | 2.87
O=C(NCCCCc1ccccc1)c1ccccc1 | 3.8 | 52.5 (≈ 13.3 µg/mL) | 
O=C(O)c1c(Sc2ccccc2)c2cc(Cl)ccc2n1Cc1ccc(Cl)cc1 | 2.96 | 132 (≈ 56.5 µg/mL) | 
Cn1c2ccccc2c2cc(NC(=O)CCc3ccncc3)ccc21 | 3.8 | 11 (≈ 3.62 µg/mL) | 
CSCCC(NC(=O)c1sccc1Cl)c1nc2ccccc2[nH]1 (configuration not stated) | 3.69 | 25.7 (≈ 9.4 µg/mL) | 
CCCNCc1cnc(-c2ccc(C(=O)Nc3ccccc3N)cc2)s1 | 1.75 | 676 (≈ 248 µg/mL) | 
O=c1cc(-c2ccc(O)cc2)[nH]c2ccccc12 | 2.34 | 4.7 (≈ 1.12 µg/mL) | 
